# In patent publication US20260109732A1, “LIPID AMINES” (ModernaTX, Inc., priority 2021, published 2026):
# Counter-ions that a name gives are not always drawn.
# Columns and labels:
# [1] = Encapsulation of mRNA nanoparticles with lipid amines using Ribogreen assay; assay type: physicochemical
# Protocol: (§1) Lipids are dissolved in ethanol at a concentration of 24 mg/mL and molar ratios of 49.0:11.2:39.3:0.5 (IL1:DSPC:cholesterol:PEG-DMG-2K) and mixed with the acidification buffer (45 mM acetate buffer at pH 4). The lipid solution and acidification buffer are mixed using a multi-inlet vortex mixer at a 3:7 volumetric ratio of lipid:buffer for mixer 1 and mixer 2 and a 1:3 volumetric ratio of lipid:buffer (25% ethanol) for mixer 3. After a 5 second residence time, the resulting nanoparticles are mixed with 55 mM sodium acetate at pH 5.6 at a volumetric ratio of 5:7 of nanoparticle:buffer. See Table 2a for mixing parameters. The resulting dilute nanoparticles are then buffer exchanged and concentrated using tangential flow filtration (TFF) into a final buffer containing 5 mM sodium acetate pH 5.0. Then a 70% sucrose solution in 5 mM acetate buffer at pH 5 is subsequently added.
# (§2) The resulting nanoparticles at a lipid concentration of 7.33 mg/mL in 5 mM acetate (pH 5) and 75 g/L sucrose are mixed with mRNA (luciferease or CFTR) at a concentration of 0.625 mg/mL in 42.5 mM sodium acetate pH 5.0, with N:P of 4.93. The nanoparticle solution and nanoparticles are mixed using a multi-inlet vortex mixer at a 3:2 volumetric ratio of nanoparticle:mRNA. Once loaded with mRNA, these intermediate nanoparticles undergo a 300 second residence time prior addition of neutralization buffer containing 120 mM TRIS pH 8.12 at a volumetric ratio of 5:1 of nanoparticle:buffer.
# (§3) For HeLa studies evaluating luciferase protein expression, PEG-DMG-2K dissolved in a 20 mM TRIS buffer (pH 7.5) is added to the neutralized intermediate nanoparticle solution at a ratio of 1:6, bringing the solution to the final molar ratios of IL1:DSPC:cholesterol:PEG-DMG-2K of 48.5:11.1:38.9:1.5%. This nanoparticle formulation is then modified with lipid amines. In a typical example, nanoparticle formulation at a concentration of 0.18 mg/mL mRNA and a 0.56 mL volume is modified with lipid amine SA50 (467.2 nmol) prepared in buffer containing 20 mM TRIS, 14.3 mM sodium acetate, 32 g/L sucrose and 140 mM NaCl-pH 7.5 at a volumetric ratio of 1:1 of nanoparticle:buffer.
# (§4) For HeLa studies evaluating CFTR protein expression, the intermediate nanoparticle formulation (1 mL, 0.415 mg mRNA) is mixed with a buffer containing 20 mM TRIS (pH 7.5), 0.9 mg/mL PEG-DMG-2K and lipid amine SA50 (647.1 nmol) at a volumetric ratio of 6:1 of nanoparticle:buffer. The resulting nanoparticle suspension undergoes concentration using a centrifugal filtration device (100 kDa molecular weight cut-off) and is diluted in running buffer (20 mM TRIS, 14.3 mM sodium acetate, and 32 g/L sucrose, pH 7.5) with a 300 mM NaCl solution to a final buffer matrix containing 70 mM NaCl.
# (§5) Both resulting nanoparticle suspensions are filtered through a 0.8/0.2 μm capsule filter and filled into glass vials at an mRNA strength of about 0.1-1 mg/mLBliophysical data (Diameter and PDI from DLS measurements and Encapsualtion using Ribogreen assay) for both luciferase and CFTR mRNA nanoparticles with lipid amines is shown in Tables 2c and d, respectively.
# HeLa cells [2] = test: Luciferase Protein Expression Assay in HeLa Cells; assay type: cell-based, Human; conditions: LNPs encapsulating Luciferase mRNA, 25 ng per well, N=4 wells; 5 h serum-free then 24 h; ONE-Glo
# Protocol: as §3
# (§6) Lipid nanoparticle compositions were prepared in a manner analogous to that in example 2. To evaluate LNP cellular uptake and protein expression In Vitro, HeLa cells from ATCC.org (ATCC CCL-2) are used. The cells are cultured in complete Minimum Essential Medium (MVEM) and are plated in 96 well Cell Carrier Ultra plate with PDL coated surface (PerkinElmer) prior to running an experiment.
# Cells were transfected with buffer control (PBS) or LNPs encapsulating Luciferase mRNA (25 ng per well; N=4 replicate wells) in serum-free MEM media. LNP transfected cells were incubated for 5 h, followed by media removal and supplementation with complete MEM media. Cells were further incubated in complete MEM media overnight (24 h). Following the 24 hr incubation, luciferase protein expression was measured using the ONE-Glo™ Luciferase Assay (Promega). Cells were lysed using 1× Passive Lysis Buffer (Cat. #E194A) for 10 min in a microplate mixer at room temperature. Luciferase in the supernatant was measured by adding Luciferase Assay Reagent (Cat. #E151A) containing luciferin. Bioluminescence was then immediately measured on a Synergy H1 plate reader (BioTek). The results shown in Table 3a show the Average Relative Light Units (RLU) of each sample tested.
# [3] = Diameter and PDI from DLS measurements of mRNA nanoparticles with lipid amines; assay type: physicochemical
# Protocol: as §1, §2, §3, §4, §5
# HeLa cells [4] = test: CFTR Protein Expression Assay in HeLa Cells; assay type: cell-based, Human; conditions: LNPs encapsulating CFTR mRNA, N=4 wells; 5 h serum-free then 24 h; immunofluorescence vs PBS control
# Protocol: as §4, §6
# Buffer control (PBS) and LNPs encapsulating cystic fibrosis transmembrane conductance regulator (CFTR) mRNA were dosed with MEM media in the absence of serum (N=4 replicate wells). LNP transfected cells were incubated for 5 h, followed by media removal and supplementation with complete MEM media. Cells were further incubated in complete MEM media overnight (24 h).
# Following 24 hr incubation, the cells were fixed with PFA and processed for immunofluorescence (IF) using an anti-CFTR rabbit monoclonal antibody. Briefly, the cells were permeabilized with 0.5% TX-100 for 10 min, blocked with 3% bovine serum albumin (BSA)+PBST for 1 hr at room temperature, and incubated with primary anti-CFTR monoclonal antibody overnight at 4° C. Following primary antibody incubation, the cells were incubated with Alexa 488 conjugated secondary antibody for 30 mi and stained with DAPI and HCS CellMask Blue stain. Between different incubation steps the cells were either washed with PBS or PBST. Cells were imaged using Opera Phoenix spinning disk confocal microscope (PerkinElmer), and CFTR protein expression was detected using the 488 nm channel. The image analysis was performed in Harmony 4.9, with main analysis output being CFTR intensity per cell. The results shown in Table 3b show fold-change in CFTR signal intensity per cell compared to buffer (PBS) control (NA=not available).
# [5] = CFTR mRNA nanoparticle with lipid amine
# [6] = Luciferase mRNA nanoparticle modified with lipid amine
SMILES,"% Encapsulation (Ribogreen) [1, 5] [%]","% Encapsulation (Ribogreen) [1, 6] [%]",Average Relative Light Units ± Standard Deviation (HeLa cells [2]) [Relative Light Units],"Diameter (nm) [3, 5] [nm]","PDI [3, 5]","Diameter (nm) [3, 6] [nm]","PDI [3, 6]",Average fold-change in CFTR signal intensity per cell compared to buffer control ± standard deviation (HeLa cells [4]) [fold-change]
"CC(C)CCC[C@@H](C)[C@H]1CC[C@H]2[C@@H]3CC=C4C[C@@H](OC(=O)N(CCCN)CCCCCCCCN)CC[C@]4(C)[C@H]3CC[C@]12C [SA60, (3S,8S,9S,10R,13R,14S,17R)-10,13-Dimethyl-17-((R)-6-methylheptan-2-yl)-2,3,4,7,8,9,10,11,12,13,14,15,16,17-tetradecahydro-1H-cyclopenta[a]phenanthren-3-yl (8-aminooctyl)(3-aminopropyl)carbamate dihydrochloride]",99.5,98.8,30508.5 ± 6869.7,70.9,0.08,74,0.13,10.7 ± 0.1
"CC(C)CCC[C@@H](C)[C@H]1CC[C@H]2[C@@H]3CC=C4C[C@@H](OC(=O)N(CCCN)CCCCOCCCN)CC[C@]4(C)[C@H]3CC[C@]12C [SA61, (3S,8S,9S,10R,13R,14S,17R)-10,13-Dimethyl-17-((R)-6-methylheptan-2-yl)-2,3,4,7,8,9,10,11,12,13,14,15,16,17-tetradecahydro-1H-cyclopenta[a]phenanthren-3-yl (4-(3-aminopropoxy)butyl)(3-aminopropyl)carbamate dihydrochloride]",99.4,99.1,14343.1 ± 5298.1,71.3,0.11,77,0.16,7.2 ± 0.4
"CC(C)CCC[C@@H](C)[C@H]1CC[C@H]2[C@@H]3CC=C4C[C@@H](OC(=O)C(C)C(=O)N(CCCN)CCCCNCCCN)CC[C@]4(C)[C@H]3CC[C@]12C.Cl.Cl.Cl (stereo partly drawn) [SA62, (3S,8S,9S,10R,13R,14S,17R)-10,13-Dimethyl-17-((R)-6-methylheptan-2-yl)-2,3,4,7,8,9,10,11,12,13,14,15,16,17-tetradecahydro-1H-cyclopenta[a]phenanthren-3-yl 3-((3-aminopropyl)(4-((3-aminopropyl)amino)butyl)amino)-2-methyl-3-oxopropanoate trihydrochloride]",99.6,99.0,18807.1 ± 6618.4,74.2,0.10,78,0.20,5.5 ± 1.3
"CC(C)CCC[C@@H](C)[C@H]1CC[C@H]2[C@@H]3CC=C4C[C@@H](OC(=O)C(=O)N(CCCN)CCCCNCCCN)CC[C@]4(C)[C@H]3CC[C@]12C [SA66, (3S,8S,9S,10R,13R,14S,17R)-10,13-Dimethyl-17-((R)-6-methylheptan-2-yl)-2,3,4,7,8,9,10,11,12,13,14,15,16,17-tetradecahydro-1H-cyclopenta[a]phenanthren-3-yl 2-((3-aminopropyl)(4-((3-aminopropyl)amino)butyl)amino)-2-oxoacetate trihydrochloride]",99.5,88.2,13951.3 ± 6740.3,75.7,0.13,72,0.18,2.4 ± 0.1
"CC[C@H](CC[C@@H](C)[C@H]1CC[C@H]2[C@@H]3CC=C4C[C@@H](OC(=O)N(CCCN)CCCCCCCCN)CC[C@]4(C)[C@H]3CC[C@]12C)C(C)C [SA69, (3S,8S,9S,10R,13R,14S,17R)-17-((2R,5R)-5-Ethyl-6-methylheptan-2-yl)-10,13-dimethyl-2,3,4,7,8,9,10,11,12,13,14,15,16,17-tetradecahydro-1H-cyclopenta[a]phenanthren-3-yl (8-aminooctyl)(3-aminopropyl)carbamate dihydrochloride]",99.9,98.9,35256.9 ± 8309.9,74.0,0.13,71,0.16,5.3 ± 0.5
"C/C(=C/CCC(C)C)[C@H]1CC[C@H]2[C@@H]3CC=C4C[C@@H](OC(=O)N(CCCN)CCCCNCCCN)CC[C@]4(C)[C@H]3CC[C@]12C [SA70, (3S,8S,9S,10R,13R,14S,17R)-10,13-dimethyl-17-((R)-6-methylheptan-2-yl)-2,3,4,7,8,9,10,11,12,13,14,15,16,17-tetradecahydro-1H-cyclopenta[a]phenanthren-3-yl (3-aminopropyl)(4-((3-aminopropyl)amino)butyl)carbamate analog olefin elimination by-product from hydroxycholesterol]",99.8,97.9,11822.1 ± 4128.6,76.2,0.16,76,0.21,4.5 ± 0.8
